In ChEMBL document CHEMBL1201862, “PubChem BioAssay data set” (2004):
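These data come from cells grown in 96-well plates and exposed to compound for 48 hours at five concentrations. Here, GI50 denotes the concentration required for 50% inhibition of growth.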 Activity calls are given as the source filed them. Cut-off read from the data, not from the text of the source: active = GI50 up to about 1.1 µM and inactive = higher.

Tests used:
Test in all cases: inhibition of tumour cell growth, NCI panel, 48 h
[1] = tested on: SNB-19
[2] = tested on: SF-539
[3] = tested on: T47D
[4] = tested on: NCI-H226
[5] = tested on: SNB-75
[6] = tested on: IGROV-1
[7] = tested on: COLO 205
[8] = tested on: K562
[9] = tested on: A549
[10] = tested on: MDA-N
[11] = tested on: MCF7
[12] = tested on: NCI-H23
[13] = tested on: Hs-578T
[14] = tested on: M14
[15] = tested on: HT-29
[16] = tested on: NCI/ADR-RES
[17] = tested on: U-251
[18] = tested on: CCRF-CEM
[19] = tested on: SK-MEL-2
[20] = tested on: RXF 393
[21] = tested on: SN12C
[22] = tested on: SK-OV-3
[23] = tested on: HCT-15
[24] = tested on: SK-MEL-5
[25] = tested on: ACHN
[26] = tested on: PC-3
[27] = tested on: DU-145
[28] = tested on: MOLT-4
[29] = tested on: HCT-116
[30] = tested on: SK-MEL-28
[31] = tested on: OVCAR-5
[32] = tested on: UACC-62
[33] = tested on: UACC-257
[34] = tested on: HCC 2998
[35] = tested on: NCI-H522
[36] = tested on: MDA-MB-231
[37] = tested on: BT-549
[38] = tested on: TK-10
[39] = tested on: SF-295
[40] = tested on: EKVX
[41] = tested on: Malme-3M
[42] = tested on: SR
[43] = tested on: KM12
[44] = tested on: NCI-H460
[45] = tested on: LOX IMVI
[46] = tested on: SF-268
[47] = tested on: OVCAR-8
[48] = tested on: MDA-MB-435
[49] = tested on: OVCAR-3
[50] = tested on: OVCAR-4
[51] = tested on: HOP-92
[52] = tested on: CAKI-1
[53] = tested on: HL-60
[54] = tested on: SW-620
[55] = tested on: 786-0
[56] = tested on: HOP-62
[57] = tested on: RPMI-8226
[58] = tested on: A498
[59] = tested on: UO-31

Measured: GI50

Clc1cccc(Cl)c1/C=N/C12CC3CC(CC(C3)C1)C2
> 10 µM: [23]
inactive: [1] > 10 µM | [2] > 10 µM | [3] > 10 µM | [4] > 10 µM | [5] 6.47 µM | [6] > 10 µM | [7] > 10 µM | [8] > 10 µM | [9] > 10 µM | [10] > 10 µM | [11] > 10 µM | [12] > 10 µM | [13] > 10 µM | [14] > 10 µM | [15] > 10 µM | [16] > 10 µM | [17] > 10 µM | [18] > 10 µM | [19] > 10 µM | [20] > 10 µM | [21] > 10 µM | [22] > 10 µM | [24] > 10 µM | [25] > 10 µM | [26] > 10 µM | [27] > 10 µM | [28] > 10 µM | [29] > 10 µM | [30] > 10 µM | [31] > 10 µM | [32] > 10 µM | [33] > 10 µM | [34] > 10 µM | [35] > 10 µM | [36] > 10 µM | [37] > 10 µM | [38] > 10 µM | [39] > 10 µM | [40] > 10 µM | [41] > 10 µM | [42] 3.26 µM | [43] > 10 µM | [44] > 10 µM | [45] > 10 µM | [46] > 10 µM | [47] > 10 µM | [48] > 10 µM | [49] > 10 µM | [50] > 10 µM | [51] > 10 µM | [52] > 10 µM | [53] > 10 µM | [54] > 10 µM | [55] > 10 µM | [56] > 10 µM | [57] > 10 µM | [58] > 10 µM

CC(=O)OC/C=C/Cn1nc(Br)c(=O)[nH]c1=O
> 100 µM: [23]
inactive: [1] > 100 µM | [2] > 100 µM | [59] > 100 µM | [3] > 100 µM | [4] > 100 µM | [5] > 100 µM | [6] > 100 µM | [7] > 100 µM | [8] > 100 µM | [9] > 100 µM | [10] > 100 µM | [11] > 100 µM | [12] > 100 µM | [13] > 100 µM | [14] > 100 µM | [15] > 100 µM | [16] > 100 µM | [17] > 100 µM | [18] > 100 µM | [19] > 100 µM | [20] > 100 µM | [21] > 100 µM | [24] > 100 µM | [25] > 100 µM | [26] > 100 µM | [27] > 100 µM | [28] > 100 µM | [29] > 100 µM | [30] > 100 µM | [31] > 100 µM | [32] > 100 µM | [33] > 100 µM | [34] > 100 µM | [35] > 100 µM | [36] > 100 µM | [37] > 100 µM | [38] > 100 µM | [39] > 100 µM | [40] > 100 µM | [41] > 100 µM | [42] > 100 µM | [43] > 100 µM | [44] > 100 µM | [45] > 100 µM | [46] > 100 µM | [47] > 100 µM | [48] > 100 µM | [49] > 100 µM | [50] > 100 µM | [51] > 100 µM | [52] > 100 µM | [53] > 100 µM | [54] > 100 µM | [55] > 100 µM | [56] > 100 µM | [57] > 100 µM | [58] > 100 µM
